Assay results as given in ChEMBL document CHEMBL1201862, “PubChem BioAssay data set” (2004).
Calls of active or inactive are those of the source.

Legend:
Mucolipin-3 = Mucolipin-3 (Homo sapiens, UniProt Q8TDD5); test: Dose response cell-based high-throughput screening assay for agonists of the transient receptor potential channel ML3 (TRPML3). [Related pubchem assays: 1526, 1424, 1448 ]; type: functional
Ion channel NompC = Ion channel NompC (Danio rerio, UniProt Q7T1G6); test: Fluorescence counterscreen assay for TRPML3 agonists: dose response cell-based high-throughput screening assay to identify agonists of the transient receptor potential channel N1 (TRPN1). [Related pubchem assays: 1526, 1424, 1448 ]; type: functional
Chain of Ion channel NompC (Q7T1G6 whole entry): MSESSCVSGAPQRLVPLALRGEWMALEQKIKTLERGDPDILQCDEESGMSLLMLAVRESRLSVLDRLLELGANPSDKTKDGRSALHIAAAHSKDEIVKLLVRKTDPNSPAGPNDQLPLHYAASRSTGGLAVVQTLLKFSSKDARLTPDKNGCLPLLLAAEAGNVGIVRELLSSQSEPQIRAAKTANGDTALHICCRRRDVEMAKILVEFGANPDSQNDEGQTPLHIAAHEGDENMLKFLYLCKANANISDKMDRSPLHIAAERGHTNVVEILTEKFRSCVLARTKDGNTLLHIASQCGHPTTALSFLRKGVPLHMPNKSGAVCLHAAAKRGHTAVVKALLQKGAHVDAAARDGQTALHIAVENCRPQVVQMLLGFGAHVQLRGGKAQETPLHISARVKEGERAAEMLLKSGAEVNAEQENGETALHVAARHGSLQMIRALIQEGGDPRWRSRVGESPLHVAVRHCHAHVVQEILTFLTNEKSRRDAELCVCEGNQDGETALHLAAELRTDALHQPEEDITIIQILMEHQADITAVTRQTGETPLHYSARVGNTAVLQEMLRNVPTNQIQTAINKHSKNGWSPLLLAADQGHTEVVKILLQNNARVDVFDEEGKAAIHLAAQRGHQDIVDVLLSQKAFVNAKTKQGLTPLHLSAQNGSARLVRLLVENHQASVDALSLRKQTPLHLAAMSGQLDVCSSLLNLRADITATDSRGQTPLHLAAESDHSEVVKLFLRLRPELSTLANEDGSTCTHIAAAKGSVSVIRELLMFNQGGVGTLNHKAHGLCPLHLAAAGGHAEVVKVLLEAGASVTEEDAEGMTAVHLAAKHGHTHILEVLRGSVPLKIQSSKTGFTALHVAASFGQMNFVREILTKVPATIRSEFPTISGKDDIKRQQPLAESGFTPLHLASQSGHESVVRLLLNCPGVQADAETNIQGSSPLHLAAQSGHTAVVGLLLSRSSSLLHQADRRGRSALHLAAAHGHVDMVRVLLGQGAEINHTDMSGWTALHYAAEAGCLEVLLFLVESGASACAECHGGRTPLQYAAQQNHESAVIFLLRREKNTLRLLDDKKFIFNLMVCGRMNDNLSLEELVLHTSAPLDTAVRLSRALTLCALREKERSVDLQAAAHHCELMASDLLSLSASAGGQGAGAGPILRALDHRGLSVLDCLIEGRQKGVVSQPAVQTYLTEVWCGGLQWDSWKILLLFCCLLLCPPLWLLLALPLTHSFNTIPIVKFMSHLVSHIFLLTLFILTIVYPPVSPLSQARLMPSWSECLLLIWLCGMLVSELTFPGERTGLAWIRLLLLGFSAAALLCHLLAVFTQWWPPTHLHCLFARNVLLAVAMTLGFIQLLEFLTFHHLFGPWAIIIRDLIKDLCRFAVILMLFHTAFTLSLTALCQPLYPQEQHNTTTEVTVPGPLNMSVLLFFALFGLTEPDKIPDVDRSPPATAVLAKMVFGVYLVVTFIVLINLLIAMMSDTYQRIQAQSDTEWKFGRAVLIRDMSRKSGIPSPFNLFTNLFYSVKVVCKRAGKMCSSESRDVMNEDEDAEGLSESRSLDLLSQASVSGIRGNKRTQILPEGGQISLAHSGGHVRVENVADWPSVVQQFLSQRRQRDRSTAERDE

Vero [1] = test: cells; type: functional; details: Chlorocebus sabaeus
[2] = A High Throughput Confirmatory Assay used to Identify Novel Compounds that Inhibit Mycobacterium Tuberculosis in the absence of Glycerol.; type: functional
[3] = microbe, parasite or virus in culture; type: functional; details: Mycobacterium tuberculosis
[4] = inhibitors of Bluetongue virus cytopathic effect, confirmation, arbovirus, BSR cells (AID 1250); type: functional;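 note: protection from viral cytopathic effect measured as cell viability by ATP luminescence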
[5] = biological target: Sphingosine 1-phosphate receptor 1 (Homo sapiens, UniProt P21453); type: functional;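 note: Tango beta-arrestin reporter U2OS cells stimulated with S1P near its EC80; inhibitor potency meaning antagonism of receptor activation by the natural agonist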
Chain of Sphingosine 1-phosphate receptor 1 (P21453 whole entry): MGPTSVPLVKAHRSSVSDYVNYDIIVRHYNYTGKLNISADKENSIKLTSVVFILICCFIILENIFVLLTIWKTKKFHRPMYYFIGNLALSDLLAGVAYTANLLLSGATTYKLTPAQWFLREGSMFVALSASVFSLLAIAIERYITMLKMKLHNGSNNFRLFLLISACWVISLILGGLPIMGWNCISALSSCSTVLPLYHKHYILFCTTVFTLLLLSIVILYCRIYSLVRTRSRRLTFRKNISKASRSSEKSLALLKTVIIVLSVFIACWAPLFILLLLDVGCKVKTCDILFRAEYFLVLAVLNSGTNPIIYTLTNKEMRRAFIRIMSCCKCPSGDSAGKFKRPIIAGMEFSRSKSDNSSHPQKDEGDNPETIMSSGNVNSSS

[6] = biological target: T1, Heat shock factor protein 1 (Mus musculus, UniProt P38532); test: HSF1 potentiators in luciferase reporter cells, confirmation, cell-based, NIH3T3, luminescence, dose retest (AID 435004); type: functional;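 note: stress induced by proteasome inhibitor MG132 added 30 min after compound; luciferase reporter driven by HSF1 response element in NIH3T3 cells; actives raise luminescence as potentiators of the MG132 stress response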
T1 sequence (P38532 whole entry): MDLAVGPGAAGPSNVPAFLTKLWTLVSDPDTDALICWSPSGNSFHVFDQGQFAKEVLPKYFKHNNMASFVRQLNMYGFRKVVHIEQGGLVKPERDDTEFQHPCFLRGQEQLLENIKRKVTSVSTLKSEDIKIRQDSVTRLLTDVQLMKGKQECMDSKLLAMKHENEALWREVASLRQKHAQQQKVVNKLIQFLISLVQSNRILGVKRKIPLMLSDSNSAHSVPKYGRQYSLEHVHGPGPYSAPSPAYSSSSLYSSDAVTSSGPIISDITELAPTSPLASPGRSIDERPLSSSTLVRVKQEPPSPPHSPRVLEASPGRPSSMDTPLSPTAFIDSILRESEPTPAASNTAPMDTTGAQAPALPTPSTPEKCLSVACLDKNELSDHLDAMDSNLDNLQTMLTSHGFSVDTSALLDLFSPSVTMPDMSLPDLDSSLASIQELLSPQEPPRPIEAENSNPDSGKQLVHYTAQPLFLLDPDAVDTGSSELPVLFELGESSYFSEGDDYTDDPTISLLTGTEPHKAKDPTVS

HeLa = test: Cytotoxicity counterscreen assay for transcriptional activators of heat shock protein 70 (Hsp70). [Related pubchem assays: 1203, 1252 ]; type: functional; details: Homo sapiens
[7] = biological target: Sphingosine 1-phosphate receptor 4 (Homo sapiens, UniProt O95977); test: Fluorescence dose response cell-based high throughput screening assay for antagonists of the Sphingosine 1-Phosphate Receptor 4 (S1P4). [Related pubchem assays: 1524 (Confirmation in triplicates.), 1510 (Primary screen.)]; type: functional
Chain of Sphingosine 1-phosphate receptor 4 (O95977 whole entry): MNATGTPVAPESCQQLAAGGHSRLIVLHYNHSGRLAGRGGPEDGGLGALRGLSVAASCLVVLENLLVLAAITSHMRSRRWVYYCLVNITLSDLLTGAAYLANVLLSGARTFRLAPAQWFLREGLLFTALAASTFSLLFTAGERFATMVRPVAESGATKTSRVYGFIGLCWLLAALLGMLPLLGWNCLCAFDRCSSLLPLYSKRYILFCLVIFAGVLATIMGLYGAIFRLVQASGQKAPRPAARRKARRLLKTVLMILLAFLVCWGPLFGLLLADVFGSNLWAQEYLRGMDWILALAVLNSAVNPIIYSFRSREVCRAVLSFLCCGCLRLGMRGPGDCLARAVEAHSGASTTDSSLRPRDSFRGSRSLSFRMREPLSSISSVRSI

[8] = biological target: T2, Microphthalmia-associated transcription factor (Homo sapiens, UniProt O75030); test: TRPM1 promoter luciferase signal decrease, dose response, MITF inhibitor project, cell-based, SK-MEL-5, cherry-picked, set 3 (AID 493073); type: functional
T2 sequence (O75030 whole entry): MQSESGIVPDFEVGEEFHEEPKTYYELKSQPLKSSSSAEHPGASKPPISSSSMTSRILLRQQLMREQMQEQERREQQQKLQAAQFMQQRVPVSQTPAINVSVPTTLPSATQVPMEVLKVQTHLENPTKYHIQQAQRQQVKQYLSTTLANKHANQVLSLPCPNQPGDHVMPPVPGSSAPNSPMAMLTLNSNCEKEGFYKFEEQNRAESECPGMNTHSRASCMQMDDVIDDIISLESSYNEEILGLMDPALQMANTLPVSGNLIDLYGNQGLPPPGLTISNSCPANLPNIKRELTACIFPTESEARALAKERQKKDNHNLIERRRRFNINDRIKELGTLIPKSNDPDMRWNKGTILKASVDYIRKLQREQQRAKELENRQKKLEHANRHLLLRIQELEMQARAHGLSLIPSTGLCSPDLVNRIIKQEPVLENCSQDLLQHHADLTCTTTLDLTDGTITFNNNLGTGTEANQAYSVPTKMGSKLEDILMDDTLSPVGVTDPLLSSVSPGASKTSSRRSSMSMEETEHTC

Paired box protein Pax-8 = Paired box protein Pax-8 (Homo sapiens, UniProt Q06710); test: inhibitors of PAX8-driven TPO luciferase reporter, dose response, RMG-I cells, cherry-pick (AID 687027); type: functional, cell-based;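 note: luciferase reporter driven by Pax8 target thyroperoxidase promoter measured by SteadyGlo luminescence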
Chain of Paired box protein Pax-8 (Q06710 whole entry): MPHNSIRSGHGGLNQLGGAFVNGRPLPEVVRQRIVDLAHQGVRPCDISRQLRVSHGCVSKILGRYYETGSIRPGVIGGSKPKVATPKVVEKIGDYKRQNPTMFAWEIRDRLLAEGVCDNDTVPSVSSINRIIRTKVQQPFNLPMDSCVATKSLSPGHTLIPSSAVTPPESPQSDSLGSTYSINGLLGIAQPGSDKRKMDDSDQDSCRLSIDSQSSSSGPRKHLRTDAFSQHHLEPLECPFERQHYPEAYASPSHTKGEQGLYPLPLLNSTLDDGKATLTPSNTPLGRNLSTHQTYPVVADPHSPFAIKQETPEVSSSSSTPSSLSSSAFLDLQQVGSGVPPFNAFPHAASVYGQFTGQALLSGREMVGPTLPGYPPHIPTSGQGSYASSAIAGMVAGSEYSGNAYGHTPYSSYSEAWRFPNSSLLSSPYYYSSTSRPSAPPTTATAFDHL

[9] = A Cell Based Assay for the Identification of Probe candidate Compounds with Anti- Venezuelan Equine Encephalitis virus. [Related pubchem assays: 2409, 2419, 1621, 2238, 2405, 2024, 2065, 2402, 2414, 1635, 1650, 2244 ]; type: functional
Vero [10] = test: cytotoxicity of synthesized analogs in Vero cells, SAR follow-up, cytotoxicity control for West Nile virus antiviral project, cell-based, set II (AID 2402); type: functional; details: Chlorocebus sabaeus
Kallikrein-7 = Kallikrein-7 (Homo sapiens, UniProt P49862); test: Fluorescence Intensity-based biochemical primary high throughput dose response assay to identify activators of kallikrein-7 (K7) zymogen.
Chain of Kallikrein-7 (P49862 whole entry): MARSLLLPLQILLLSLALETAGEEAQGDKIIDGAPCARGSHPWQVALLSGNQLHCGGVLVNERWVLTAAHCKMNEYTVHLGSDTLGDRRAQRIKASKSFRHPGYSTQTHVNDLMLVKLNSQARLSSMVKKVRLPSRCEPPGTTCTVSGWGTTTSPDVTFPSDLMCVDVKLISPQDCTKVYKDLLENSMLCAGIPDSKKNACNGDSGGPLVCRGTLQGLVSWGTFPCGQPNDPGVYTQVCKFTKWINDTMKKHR

Chain of Mucolipin-3 (Q8TDD5 whole entry): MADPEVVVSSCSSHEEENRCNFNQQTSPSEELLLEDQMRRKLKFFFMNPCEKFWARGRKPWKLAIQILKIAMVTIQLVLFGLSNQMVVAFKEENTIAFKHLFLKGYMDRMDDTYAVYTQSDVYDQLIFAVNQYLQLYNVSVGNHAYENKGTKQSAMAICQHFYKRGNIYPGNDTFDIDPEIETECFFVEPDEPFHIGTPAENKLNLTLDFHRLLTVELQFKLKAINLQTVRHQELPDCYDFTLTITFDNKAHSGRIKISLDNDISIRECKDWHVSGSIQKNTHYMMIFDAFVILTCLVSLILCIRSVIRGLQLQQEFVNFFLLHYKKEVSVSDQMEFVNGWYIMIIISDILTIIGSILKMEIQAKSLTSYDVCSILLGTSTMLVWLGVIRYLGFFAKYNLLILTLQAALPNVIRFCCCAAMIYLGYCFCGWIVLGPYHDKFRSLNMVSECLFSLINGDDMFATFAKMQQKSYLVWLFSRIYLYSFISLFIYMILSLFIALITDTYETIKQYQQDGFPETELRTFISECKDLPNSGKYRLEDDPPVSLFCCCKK

## COC(=O)c1c(NC(=O)COC(=O)[C@@H](NS(=O)(=O)c2ccc(C)cc2)C(C)C)sc2c1CCC2
Mucolipin-3
  EC50: 2.8 µM (active)
Ion channel NompC
  EC50: > 29.9 µM (not active)

## CC(C(Sc1ccccc1N)c1ccccc1)[N+](=O)[O-] (stereo not given)
Vero [1]
  CC50: 16.6 µM (active)
[2]
  IC50: > 100 µM (active)
[3]
  CC50: 32.6 µM (active)

## Cc1ccc2cc(C3CC(c4ccco4)=NN3S(=O)(=O)c3ccccc3)c(Cl)nc2c1 (stereo not given)
[4]
  IC50: 40.7 µM (active)

## O=C(Nc1ccc(N2CCN(C(=O)c3ccccc3)CC2)cc1)c1ccc([N+](=O)[O-])o1
[5]
  IC50: 12.7 µM (not active)
[6]
  EC50: 8.79 µM (active)
HeLa
  CC50: 7.65 µM (active)
[7]
  IC50: 1.64 µM (active)
[8]
  AC50: 17.9 µM (active)
Paired box protein Pax-8
  AC50: 3.92 µM (active)

## OC1c2cc(Cl)cc(Cl)c2N=C2CCCN21 (stereo not given)
[9]
  IC50: < 0.26 µM (active)
Vero [10]
  CC50: > 200 µM (active)
Kallikrein-7
  EC50: 48.5 µM (inactive)
